Results taken from patent EP3654984B1, “TOPICAL TREATMENT FOR PREVENTING AND MITIGATING SKIN CYTOTOXICITY DUE TO THERAPY WITH TYROSINE KINASE INHIBITORS” (EUCARE S.R.L., priority 2017, dated 2019).
“Also recorded” adds a separate entry of the source.

What was measured:
[1] = system: patients with EGFR mutation-positive non-small-cell lung cancer; details: LUX-Lung 7, cited from earlier work
[2] = system: patients with metastatic lung adenocarcinoma with EGFR mutations; details: cited from earlier work
[3] = system: patients with non-small cell lung cancer (NSCLC); details: afatinib 40 mg/day for 90 days, cited from earlier work
[4] = system: Asian patients with advanced non-small-cell lung cancer harboring EGFR mutations; details: cited from earlier work
[5] = system: skin and subcutaneous tissue; details: EMA marketing authorization documentation; cited from earlier work
[6] = system: appropriate patient population; details: approximately; when given to an appropriate patient population; cited from earlier work
[7] = system: patients with metastatic lung cancer; assay: Retrospective study of prophylactic dermatological treatment with polydatin cream on cutaneous toxicity of afatinib (NCI-CTCAE v3.0 grading); assay type: in vivo; details: for Incidence of skin rash, All grades (%) / Incidence of skin rash, Grade 1 (%) / Incidence of skin rash, Grade 2 (%) / Incidence of skin rash, Grade 3 (%): 1.5% polydatin cream twice a day
Excerpt: The main exclusion criteria were: poor patient compliance; allergy or sensitivity to polydatin; current or previous treatment with topical or oral antioxidant drugs; concomitant skin diseases.
The retrospective study was specifically designed to evaluate a proactive management of EGFR-mediated skin toxicity, in order to minimize the possibility of having to reduce the dose or suspend the antitumor treatment.
Patients were monitored every 7 days for the first month, and thereafter every 20 days or when needed.
Data about severity, duration and management of cutaneous toxicity induced by TKI were analyzed in all patients treated using a descriptive statistic.
The scale used for the classification of cutaneous toxicities induced by EGFR-targeted therapies was the classification scale of the Common Terminology Criteria for Adverse Events of the National Cancer Institute.

skin = skin reactions during treatment with sunitinib and sorafenib; cited from earlier work
[8] = of the 160 (afatinib) / 159 (gefitinib) patients treated
[9] = term used for a group of adverse events
[10] = Cutaneous rash, all patients (n = 34), afatinib 40 mg/day

## CN(C)C/C=C/C(=O)Nc1cc2c(Nc3ccc(F)c(Cl)c3)ncnc2cc1O[C@H]1CCOC1 [Afatinib, afatinib]
[1]; ALT, alanine aminotransferase
  ALT increased, All: 9.4%
[1]; AST, aspartate aminotransferase
  AST increased, All: 6.3%
[1]; afatinib 40 mg/day or gefitinib 250 mg/day
  Diarrhea, All: 90.0%
[1]
  Alopecia, All: 10.6%
  Itching, All: 23.1%
  Nausea, All: 16.3%
  Nausea, Grade 3: 1.3%
  Reduction of appetite, All: 16.3%
  Reduction of appetite, Grade 3: 0.6%
  Vomiting, All: 10.6%
  Xerosis, All: 32.5%
  grade 3 or 4 diarrhea: 13%
  grade 3 or 4 rash or acne: 9%
[1]; [8]
  grade 3 or 4 diarrhea, number of patients: 20 patients
  grade 3 or 4 rash or acne, number of patients: 15 patients
[1]; [9]
  Asthenia*, All: 20.6%
  Asthenia*, Grade 3: 5.6%
  Paronychia*, All: 55.6%
  Paronychia*, Grade 3: 1.9%
  Rash/acne*, All: 88.8%
  Rash/acne*, Grade 3: 9.4%
  Stomatitis*, All: 64.4%
  Stomatitis*, Grade 3: 4.4%
[2]; LUX LUNG 3, % of patients
  treatment discontinued due to treatment-related adverse events: 8%
[2]; LUX LUNG 3
  incidence of rash grade 1-2: 72.9%
[2]; LUX-Lung 3 (LL3)
  Asthenia, All grades: 17.5%
  Asthenia, Grade 3: 1.3%
  Asthenia, Grade 4: 0%
  Diarrhea, All grades: 95.2%
  Diarrhea, Grade 3: 14.4%
  Diarrhea, Grade 4: 0%
  Dry skin, All grades: 29.3/NA %
  Dry skin, Grade 3: 0.4/NA %
  Dry skin, Grade 4: 0%
  Hitching, All grades: 18.8%
  Hitching, Grade 3: 0.4/0.4%
  Hitching, Grade 4: 0%
  Nausea, All grades: 17.9%
  Nausea, Grade 3: 0.9%
  Nausea, Grade 4: 0%
  Paronychia/periungual problems, All grades: 56.8%
  Paronychia/periungual problems, Grade 3: 11.4%
  Paronychia/periungual problems, Grade 4: 0%
  Rash/acne, All grades: 89.1%
  Rash/acne, Grade 3: 16.2%
  Rash/acne, Grade 4: 0.0%
  Reduction of appetite, All grades: 20.5%
  Reduction of appetite, Grade 3: 3.1%
  Reduction of appetite, Grade 4: 0%
  Stomatitis/mucositis, All grades: 72.1%
  Stomatitis/mucositis, Grade 3: 8.37%
  Stomatitis/mucositis, Grade 4: 0.4%
  Vomiting, All grades: 17.0%
  Vomiting, Grade 3: 3.1%
  Vomiting, Grade 4: 0%
[3]; control arm (no treatment)
  incidence of rash of any grade: 75.6%
[3]; control arm
  incidence of rash grade ≥ 2: 35.6%
[4]; LUX LUNG 6
  incidence of rash grade 1-2: 66.1%
  rate of treatment discontinuation due to adverse events: 2.1%
[4]; LUX-Lung 6 (LL6)
  Asthenia, All grades: 10.0%
  Asthenia, Grade 3: 0.4%
  Asthenia, Grade 4: 0%
  Diarrhea, All grades: 88.3%
  Diarrhea, Grade 3: 5.4%
  Diarrhea, Grade 4: 0%
  Hitching, All grades: 10.9%
  Hitching, Grade 3: 0.4/0.4%
  Hitching, Grade 4: 0%
  Nausea, All grades: 7.5%
  Nausea, Grade 3: 0.0%
  Nausea, Grade 4: 0%
  Paronychia/periungual problems, All grades: 32.6%
  Paronychia/periungual problems, Grade 3: 0.0%
  Paronychia/periungual problems, Grade 4: 0%
  Rash/acne, All grades: 80.8%
  Rash/acne, Grade 3: 14.2%
  Rash/acne, Grade 4: 0.4%
  Reduction of appetite, All grades: 10.0%
  Reduction of appetite, Grade 3: 1.3%
  Reduction of appetite, Grade 4: 0%
  Stomatitis/mucositis, All grades: 51.9%
  Stomatitis/mucositis, Grade 3: 5.4%
  Stomatitis/mucositis, Grade 4: 0.0%
  Vomiting, All grades: 9.6%
  Vomiting, Grade 3: 0.8%
  Vomiting, Grade 4: 0%
[5]
  frequency of acneiform dermatitis: very common ("very common" (frequency ≥ 1/10))
  frequency of dryness of the skin (xerosis): very common ("very common" (frequency ≥ 1/10))
  frequency of itching: very common ("very common" (frequency ≥ 1/10))
  frequency of palmoplantar erythrodysesthesia syndrome: common ("common" (frequency ≥ 1/100 e < 1/10))
  frequency of skin rash: very common ("very common" (frequency ≥ 1/10))

## COc1cc2ncnc(Nc3ccc(F)c(Cl)c3)c2cc1OCCCN1CCOCC1 [Gefitinib, gefitinib]
[6]
  response rates: 60-70%

## C#Cc1cccc(Nc2ncnc3cc(OCCOC)c(OCCOC)cc23)c1 [erlotinib]
[6]
  response rates: 60-70%

## OC[C@H]1O[C@@H](Oc2cc(O)cc(/C=C/c3ccc(O)cc3)c2)[C@H](O)[C@@H](O)[C@@H]1O [polydatin, 3,4,5'-trihydroxystilbene-3-β-mono-d-glucoside]
[7]; 1.5% polydatin cream prophylaxis, afatinib 40 mg/day, n = 34
  patients who had to discontinue therapy due to toxicity of the antitumor drug: no patient; also recorded: no suspension of treatment
[7]; [10]
  Incidence of skin rash, All grades (%): 41.2%
  Incidence of skin rash, Grade 1 (%): 20.6%
  Incidence of skin rash, Grade 2 (%): 20.6%
  Incidence of skin rash, Grade 3 (%): 0%
[7]; Females, afatinib 40 mg/day
  Incidence of skin rash, All grades (%): 23.5%
  Incidence of skin rash, Grade 1 (%): 5.9%
  Incidence of skin rash, Grade 2 (%): 8.6%
  Incidence of skin rash, Grade 3 (%): 0%
[7]; Males, afatinib 40 mg/day
  Incidence of skin rash, All grades (%): 17.6%
  Incidence of skin rash, Grade 1 (%): 14.7%
  Incidence of skin rash, Grade 2 (%): 12%
  Incidence of skin rash, Grade 3 (%): 0%
[7]; prophylaxis with polydatin, afatinib, n = 34
  patients who had to reduce the dose for the cutaneous toxicity of the drug: no patient
[7]; prophylaxis with polydatin, n = 34
  patients who had to reduce the dose of afatinib from 40 to 30 mg/day due to intestinal toxicity (%): 35.3%

## CNC(=O)c1cc(Oc2ccc(NC(=O)Nc3ccc(Cl)c(C(F)(F)F)c3)cc2)ccn1 [sorafenib]
skin
  alopecia: 15%
  folliculitis: 38%
  hand-foot syndrome (palmopantar erythrodysesthesia): 42%
  nail alterations: 14%
  pruritus: 36%
  skin rash: 46%
  stomatitis: 16%

## CCN(CC)CCNC(=O)c1c(C)[nH]c(/C=C2\C(=O)Nc3ccc(F)cc32)c1C [sunitinib]
skin
  alopecia: 15%
  folliculitis: 38%
  hand-foot syndrome (palmopantar erythrodysesthesia): 42%
  nail alterations: 14%
  pruritus: 36%
  skin rash: 46%
  stomatitis: 16%
